This is an account of results in ChEMBL document CHEMBL5126611, “Design, Synthesis, and Biological Evaluations of Pyridyl 4,5,6,7-Tetrahydro-4,7-Methanobenzo[d]isoxazoles as Potent and Selective Inhibitors of 11β-Hydroxylase” (J Med Chem, 2022).

Series [1] concerns the target T1, Cytochrome P450 11B2, mitochondrial (Homo sapiens, UniProt P19099).
T1 sequence (P19099 whole entry): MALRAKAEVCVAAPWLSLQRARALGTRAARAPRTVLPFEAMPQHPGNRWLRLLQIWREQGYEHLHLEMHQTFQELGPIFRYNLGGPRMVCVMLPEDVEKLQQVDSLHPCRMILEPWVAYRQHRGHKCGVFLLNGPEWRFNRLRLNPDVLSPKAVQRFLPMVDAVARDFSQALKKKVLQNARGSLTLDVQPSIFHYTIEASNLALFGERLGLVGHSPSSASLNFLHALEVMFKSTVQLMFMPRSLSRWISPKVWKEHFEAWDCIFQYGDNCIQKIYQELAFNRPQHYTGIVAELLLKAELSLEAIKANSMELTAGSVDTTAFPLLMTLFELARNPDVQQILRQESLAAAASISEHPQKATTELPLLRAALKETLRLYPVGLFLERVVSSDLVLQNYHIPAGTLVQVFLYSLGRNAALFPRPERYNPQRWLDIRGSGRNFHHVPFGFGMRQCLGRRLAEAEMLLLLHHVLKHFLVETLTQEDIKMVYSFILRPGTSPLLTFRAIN
Nature of the series: Inhibition of human CYP11B2 expressed in Chinese hamster V79 MZh cells using [14C]-deoxycorticosteron as substrate measured after 6 hrs by phosphoimager analysis. It is filed as ADME, cell-based.

Series [2] addresses T2, Steroid 17-alpha-hydroxylase/17,20 lyase (Homo sapiens, UniProt P05093).
T2 sequence (P05093 whole entry): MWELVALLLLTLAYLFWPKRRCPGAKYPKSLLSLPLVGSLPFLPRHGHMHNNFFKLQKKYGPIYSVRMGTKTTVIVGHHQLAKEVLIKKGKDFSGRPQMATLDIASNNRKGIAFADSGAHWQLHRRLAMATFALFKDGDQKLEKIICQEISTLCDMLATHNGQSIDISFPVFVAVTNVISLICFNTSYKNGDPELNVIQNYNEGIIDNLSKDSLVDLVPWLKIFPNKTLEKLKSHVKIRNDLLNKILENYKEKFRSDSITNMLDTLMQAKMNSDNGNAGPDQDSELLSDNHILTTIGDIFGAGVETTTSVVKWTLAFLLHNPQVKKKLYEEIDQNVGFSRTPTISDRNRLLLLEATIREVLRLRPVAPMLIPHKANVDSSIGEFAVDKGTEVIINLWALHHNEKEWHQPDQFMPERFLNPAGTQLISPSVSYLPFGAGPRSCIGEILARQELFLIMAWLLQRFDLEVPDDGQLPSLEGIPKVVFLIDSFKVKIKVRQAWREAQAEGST
Nature of the series: Inhibition of human CYP17 expressed in Escherichia coli. The format is ADME.

Series [3] deals with Cytochrome P450 2D6 (Homo sapiens, UniProt P10635). The series is described as follows: Inhibition of human hepatic recombinant CYP2D6 using cocktail of substrate by LC-MS/MS analysis. The format is ADME.
Series [4] in a line: Tmax in Sprague-Dawley rat at 25 mg/kg, po measured up to 24 hrs by LC-MS analysis. It is filed as ADME, organism-based. As to conditions: in vivo.
Series [5] can be described thus: AUC (0 to infinity) in Sprague-Dawley rat at 25 mg/kg, po measured up to 24 hrs by LC-MS analysis. The format is ADME, organism-based. Further details: dose 25 mg/kg, time < 24 hrs, route po. As to conditions: in vivo.
A short description of series [6]: Terminal half life in Sprague-Dawley rat at 5 mg/kg, iv measured up to 24 hrs by LC-MS analysis. The format is ADME, organism-based. Particulars: in vivo, read-out: beta t1/2 (converted).
A short description of series [7]: Terminal half life in Sprague-Dawley rat at 25 mg/kg, po measured up to 24 hrs by LC-MS analysis. Particulars: in vivo, read-out: beta t1/2 (converted). It is filed as ADME, organism-based.
Series [8] in a line: Clearance in Sprague-Dawley rat at 5 mg/kg, iv measured up to 24 hrs by LC-MS analysis. It is filed as ADME, organism-based. As to conditions: in vivo.
Series [9] can be described thus: Selectivity ratio of IC50 for inhibition of rat CYP11B2 to IC50 for inhibition of rat CYP11B1. It is filed as ADME.

Molecules are shown by their SMILES.

Sequence of Cytochrome P450 2D6 (P10635 whole entry): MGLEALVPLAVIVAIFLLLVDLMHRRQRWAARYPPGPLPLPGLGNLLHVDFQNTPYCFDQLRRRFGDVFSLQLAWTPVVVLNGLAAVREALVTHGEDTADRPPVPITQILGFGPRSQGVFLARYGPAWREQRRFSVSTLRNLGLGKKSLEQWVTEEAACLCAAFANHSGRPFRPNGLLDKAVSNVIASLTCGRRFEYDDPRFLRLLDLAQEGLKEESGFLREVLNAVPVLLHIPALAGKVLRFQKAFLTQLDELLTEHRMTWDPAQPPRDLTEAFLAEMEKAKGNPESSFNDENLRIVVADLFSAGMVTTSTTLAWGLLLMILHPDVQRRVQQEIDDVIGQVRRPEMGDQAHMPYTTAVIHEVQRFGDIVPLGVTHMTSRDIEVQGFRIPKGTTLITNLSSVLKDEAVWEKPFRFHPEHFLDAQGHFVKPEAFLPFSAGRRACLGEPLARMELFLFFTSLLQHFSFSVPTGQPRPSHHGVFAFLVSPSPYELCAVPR

As usually defined, the IC50 is the concentration that gives 50% inhibition. What is called Tmax is the time from dosing to the highest level. The AUC(0-inf) is total exposure, with the tail of the curve extrapolated. A higher AUC(0-inf) goes with high exposure. With `O=C(Nc1ccc2[nH]ncc2c1)[C@]12ON=C(c3cccnc3)[C@H]1[C@@H]1CC[C@H]2C1`, the IC50 is 1.12 µM in series [1], over 10 µM in series [2] and over 10 µM in series [3]. Besides, the Tmax in [4] worked out at 4.2 h. For the same compound, the AUC(0-inf) in series [5] worked out at 54500 ng·h/mL. In addition, the half-life in series [6] was 4.5 h; in [7], 4.6 h. The CL in series [8] amounted to 0.287 mL/min/kg. Moreover, in series [9], the “Ratio IC50” value came out at 81.
